Data on 10 molecules can be found in patent publication US8435978B2, “Substituted sulfonamide compounds” (Gruenenthal GmbH, priority 2006, dated 2013).

The term inhibition denotes the change of the read-out against control, counted positive when it falls.

Assay [1] has as its target T1, human B1R receptor (Homo sapiens, UniProt P46663).
T1 construct: host or cells: CHO K1 cells (Chinese hamster ovary), stably transfected
T1 sequence (P46663 1-353): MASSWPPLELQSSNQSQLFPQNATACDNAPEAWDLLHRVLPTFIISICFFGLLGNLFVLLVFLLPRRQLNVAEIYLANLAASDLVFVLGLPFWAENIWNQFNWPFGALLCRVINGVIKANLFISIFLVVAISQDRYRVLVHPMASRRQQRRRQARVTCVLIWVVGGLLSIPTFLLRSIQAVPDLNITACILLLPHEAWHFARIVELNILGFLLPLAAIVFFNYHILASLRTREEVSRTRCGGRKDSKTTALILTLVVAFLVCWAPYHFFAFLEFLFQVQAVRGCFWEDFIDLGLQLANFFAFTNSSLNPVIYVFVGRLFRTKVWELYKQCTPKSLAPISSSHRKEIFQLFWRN
Kind of assay: Functional study on the bradykinin receptor 1 (B1R), FLIPR Ca2+ assay, hB1R cells. It counts as cell-based. Conditions: CHO-K1, test substance 10 μM, agonist Lys-Des-Arg9-bradykinin 0.5 nM, % inhibition compared with the maximum achievable inhibition, read-out: B1R Antagonism, human [10 μM] % Inhibition. An outline of the steps: (§1)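 FLIPR Ca2+ assay in recombinant CHO K1 cells (human or rat B1R), Fluo-4 dye; 10 μM compound, 10 min, then EC-level agonist per species (0.5 nM Lys-Des-Arg9-BK human / 100 nM Des-Arg9-BK rat). Output: % inhibition vs maximum.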

Assay [2] has as its target T2, B1R receptor of the rat (Rattus norvegicus, UniProt P97583).
T2 construct: host or cells: CHO K1 cells (Chinese hamster ovary), stably transfected
T2 sequence (P97583 1-337): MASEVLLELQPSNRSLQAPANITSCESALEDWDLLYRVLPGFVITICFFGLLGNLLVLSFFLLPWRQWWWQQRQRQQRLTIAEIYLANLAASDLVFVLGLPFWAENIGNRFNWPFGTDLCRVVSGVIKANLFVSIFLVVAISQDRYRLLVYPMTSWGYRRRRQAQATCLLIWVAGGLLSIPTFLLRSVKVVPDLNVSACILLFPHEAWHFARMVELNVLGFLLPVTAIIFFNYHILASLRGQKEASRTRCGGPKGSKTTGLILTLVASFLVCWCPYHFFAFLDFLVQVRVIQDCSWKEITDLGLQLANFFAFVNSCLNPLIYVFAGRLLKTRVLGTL
The assay is described as follows: Functional study on the bradykinin receptor 1 (B1R), FLIPR Ca2+ assay, rB1R cells. It counts as cell-based. As to conditions: CHO-K1, test substance 10 μM, agonist Des-Arg9-bradykinin 100 nM, % inhibition compared with the maximum achievable inhibition, read-out: B1R Antagonism, rat [10 μM] % Inhibition. The gist of the method: as §1

Where a name gives a salt, the structure may show the parent alone.

As for `COc1cc(C)c(S(=O)(=O)N2CCCCC2COCC(=O)N2CCC(Oc3cccnc3)CC2)c(C)c1` (centres unmarked) [Example 165, 2-((1-(4-methoxy-2,6-dimethylphenylsulfonyl)piperidin-2-yl)methoxy)-1-(4-(pyridin-3-yloxy)piperidin-1-yl)ethanone], the results for the inhibition at 10 µM in assay [1] and in assay [2] were 97.1% and 96.8%, respectively.

In the case of `COc1cc(C)c(S(=O)(=O)N2CCCCC2COCC(=O)N2CCN(Cc3ccc4nccnc4c3)CC2)c(C)c1` (centres unmarked) [Example 166, 2-((1-(4-methoxy-2,6-dimethylphenylsulfonyl)piperidin-2-yl)methoxy)-1-(4-(quinoxalin-6-ylmethyl)piperazin-1-yl)ethanone], the inhibition at 10 µM in assay [1] amounted to 99.4%; in assay [2], 99.3%.

For the molecule `COc1cc(C)c(S(=O)(=O)N2CCCC[C@H]2COCC(=O)N2CCN(C3CCN(C)CC3)CC2)c(C)c1` [Example 167, (S)-2-((1-(4-methoxy-2,6-dimethylphenylsulfonyl)piperidin-2-yl)methoxy)-1-(4-(1-methylpiperidin-4-yl)piperazin-1-yl)ethanone], the inhibition at 10 µM in assay [1] is 102%; in assay [2] it was 101%.

With `COc1cc(C)c(S(=O)(=O)N2CCCCC2COCC(=O)N2CCN(c3ccc4c(N5CCCC5)ncnc4c3)CC2)c(C)c1` (centres unmarked) [Example 168, 2-((1-(4-methoxy-2,6-dimethylphenylsulfonyl)piperidin-2-yl)methoxy)-1-(4-(4-(pyrrolidin-1-yl)quinazolin-7-yl)piperazin-1-yl)ethanone], the inhibition at 10 µM worked out at 93.8% in assay [1] and 98.4% in assay [2].

As for `Cc1cc(F)cc(C)c1S(=O)(=O)N1CCCCC1COCC(=O)N1CCN(C2CCN(C)CC2)CC1` (centres unmarked) [Example 169, 2-((1-(4-fluoro-2,6-dimethylphenylsulfonyl)piperidin-2-yl)methoxy)-1-(4-(1-methylpiperidin-4-yl)piperazin-1-yl)ethanone dihydrochloride], the inhibition at 10 µM came out at 100% in assay [1] and 101% in assay [2].

For the molecule `CN1CCC(N2CCN(C(=O)COCC3CCCCN3S(=O)(=O)c3cc(Cl)sc3Cl)CC2)CC1` (centres unmarked) [Example 170, 2-((1-(2,5-dichlorothiophen-3-ylsulfonyl)piperidin-2-yl)methoxy)-1-(4-(1-methylpiperidin-4-yl)piperazin-1-yl)ethanone dihydrochloride], the values for the inhibition at 10 µM in assay [1] and in assay [2] were 101% and 97.8%, respectively.

Regarding `CN1CCC(N2CCN(C(=O)COCC3CCCCN3S(=O)(=O)c3cc4ccccc4s3)CC2)CC1` (centres unmarked) [Example 171, 2-((1-(benzo[b]thiophen-2-ylsulfonyl)piperidin-2-yl)methoxy)-1-(4-(1-methylpiperidin-4-yl)piperazin-1-yl)ethanone], the inhibition at 10 µM in assay [1] turned out to be 102%; in assay [2], 82.8%.

For the molecule `Cc1cc(S(=O)(=O)N2CCCCC2COCC(=O)N2CCN(C3CCN(C)CC3)CC2)c(C)s1` (centres unmarked) [Example 172, 2-((1-(2,5-dimethylthiophen-3-ylsulfonyl)piperidin-2-yl)methoxy)-1-(4-(1-methylpiperidin-4-yl)piperazin-1-yl)ethanone], the inhibition at 10 µM in assay [1] was 101%; in assay [2], 85.2%.

As for `CN1CCC(N2CCN(C(=O)COCC3CCCCN3S(=O)(=O)c3cccc(Cl)c3Cl)CC2)CC1` (centres unmarked) [Example 173, 2-((1-(2,3-dichlorophenylsulfonyl)piperidin-2-yl)methoxy)-1-(4-(1-methylpiperidin-4-yl)piperazin-1-yl)ethanone dihydrochloride], the inhibition at 10 µM in assay [1] and in assay [2] was 101% throughout.

Turning to `COc1ccc(S(=O)(=O)N2CCCCC2COCC(=O)N2CCN(C3CCN(C)CC3)CC2)c2ccccc12` (centres unmarked) [Example 174, 2-((1-(4-methoxynaphthalen-1-ylsulfonyl)piperidin-2-yl)methoxy)-1-(4-(1-methylpiperidin-4-yl)piperazin-1-yl)ethanone dihydrochloride], the inhibition at 10 µM amounted to 101% in assay [1] and 98% in assay [2].
